Results reported in PubChem BioAssay (NCI).
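GI50 marks 50% less growth. Definition used: TGI = concentration required for complete inhibition of growth.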

Tests used:
Assay in all cases: NCI-60 cell line screen, 384-well format
[1] = system: OVCAR-5 ovarian
[2] = system: UACC-62 melanoma
[3] = system: HT29 colon
[4] = system: SR leukemia
[5] = system: RXF 393 renal
[6] = system: MDA-MB-231 breast
[7] = system: SK-OV-3 ovarian
[8] = system: U251 glioblastoma
[9] = system: MDA-MB-468 breast
[10] = system: A549 NSCLC
[11] = system: DU-145 prostate
[12] = system: OVCAR-8 ovarian
[13] = system: A498 renal
[14] = system: SK-MEL-28 melanoma
[15] = system: KM12 colon
[16] = system: HCT-15 colon
[17] = system: OVCAR-3 ovarian
[18] = system: BT-549 breast
[19] = system: MCF7 breast
[20] = system: LOX IMVI melanoma
[21] = system: HS 578T breast
[22] = system: IGROV1 ovarian
[23] = system: SNB-75 CNS
[24] = system: HCC-2998 colon
[25] = system: SK-MEL-5 melanoma
[26] = system: NCI-H23 lung
[27] = system: OVCAR-4 ovarian
[28] = system: EKVX NSCLC
[29] = system: HOP-92 NSCLC
[30] = system: CAKI-1 renal
[31] = system: SNB-19 CNS
[32] = system: NCI-H322M lung
[33] = system: MOLT-4 leukemia
[34] = system: UACC-257 melanoma
[35] = system: NCI/ADR-RES ovarian
[36] = system: NCI-H522 lung
[37] = system: SN12C renal
[38] = system: COLO 205 colon
[39] = system: T-47D breast
[40] = system: PC-3 prostate
[41] = system: NCI-H226 lung
[42] = system: SF-268 CNS
[43] = system: HL-60(TB) leukemia
[44] = system: NCI-H460 NSCLC
[45] = system: HCT-116 colon
[46] = system: RPMI-8226 leukemia

## Cn1cc(-c2cnn3c(N)c(Br)c(C4CCCNC4)nc23)cn1 (stereo unspecified)
[1]
  GI50: 0.0964 µM
  TGI: 16.5 µM
[2]
  GI50: 0.88 µM
  TGI: 15.3 µM
[3]
  GI50: 0.989 µM
  TGI: 12.9 µM
[4]
  GI50: < 0.01 µM
[5]
  GI50: 0.0332 µM
  TGI: 25 µM
[6]
  GI50: 2.9 µM
  TGI: 42.2 µM
[7]
  GI50: 0.0621 µM
  TGI: 23.2 µM
[8]
  GI50: 5.36 µM
  TGI: 20.3 µM
[9]
  GI50: 3.75 µM
  TGI: 24.4 µM
[10]
  GI50: 7.68 µM
  TGI: 28.6 µM
[11]
  GI50: 0.227 µM
  TGI: 15.6 µM
[12]
  GI50: 0.0382 µM
  TGI: 21.2 µM
[13]
  GI50: < 0.01 µM
  TGI: 0.0226 µM
[14]
  GI50: 11.1 µM
  TGI: 26.5 µM
[15]
  GI50: 0.117 µM
  TGI: 15.8 µM
[16]
  GI50: 2.08 µM
  TGI: 19.4 µM
[17]
  GI50: 0.188 µM
  TGI: 20.3 µM
[18]
  GI50: 0.033 µM
  TGI: 5.25 µM
[19]
  GI50: 1.36 µM
  TGI: 17.9 µM
[20]
  GI50: 1.33 µM
  TGI: 4.22 µM
[21]
  GI50: 0.0302 µM
  TGI: 18.9 µM
[22]
  GI50: 0.0563 µM
  TGI: 13.2 µM
[23]
  GI50: 4.99 µM
  TGI: 25.3 µM
[24]
  GI50: < 0.01 µM
  TGI: 0.0624 µM
[25]
  GI50: 0.0346 µM
  TGI: 1.2 µM
[26]
  GI50: 0.027 µM
  TGI: 21.2 µM
[27]
  GI50: < 0.01 µM
  TGI: 26.6 µM
[28]
  GI50: 3.54 µM
  TGI: 23.8 µM
[29]
  GI50: 0.0263 µM
  TGI: 33.3 µM
[30]
  GI50: 1.46 µM
  TGI: 15.2 µM
[31]
  GI50: 0.983 µM
  TGI: 37.1 µM
[32]
  GI50: 0.293 µM
  TGI: 22.1 µM
[33]
  GI50: 0.0234 µM
  TGI: 0.053 µM
[34]
  GI50: 2.29 µM
  TGI: 19.5 µM
[35]
  GI50: 2.04 µM
  TGI: > 100 µM
[36]
  GI50: 2.56 µM
  TGI: 11.4 µM
[37]
  GI50: 0.0371 µM
  TGI: 3.72 µM
[38]
  GI50: 0.922 µM
  TGI: 5.81 µM
[39]
  GI50: 14.6 µM
  TGI: 37.1 µM
[40]
  GI50: 1.8 µM
  TGI: 14.6 µM
[41]
  GI50: 3.29 µM
  TGI: 18.6 µM
[42]
  GI50: 5.36 µM
  TGI: 27.2 µM
[43]
  GI50: 0.032 µM
  TGI: 0.129 µM
[44]
  GI50: 0.93 µM
  TGI: 10.9 µM
[45]
  GI50: 2.01 µM
  TGI: 15.6 µM
[46]
  GI50: 0.0358 µM
  TGI: 0.643 µM
